Assay results: ChEMBL document CHEMBL3232965, “The σ2 receptor: a novel protein for the imaging and treatment of cancer” (J Med Chem, 2013)

How the values were obtained:
[1] = Binding affinity to sigma-2 opioid receptor (unknown origin); set-up: species or system Homo sapiens
[2] = species on record: Homo sapiens; assay: Selectivity ratio of Ki for sigma-1 opioid receptor (unknown origin) to Ki for sigma-2 opioid receptor (unknown origin)
[3] = biological target: Sigma non-opioid intracellular receptor 1 (Homo sapiens, UniProt Q99720); assay: Binding affinity to sigma-1 opioid receptor (unknown origin)
[4] = species on record: Homo sapiens; assay: Selectivity ratio of IC50 for sigma-1 opioid receptor (unknown origin) to IC50 for sigma-2 opioid receptor (unknown origin)
[5] = species on record: Cavia porcellus; assay: Selectivity ratio of Ki for guinea pig brain membrane sigma-1 opioid receptor to Ki for guinea pig brain membrane sigma-2 opioid receptor
[6] = Displacement of [3H]-DTG from sigma-2 opioid receptor in rat liver
[7] = Selectivity ratio of Ki for guinea pig brain sigma-1 opioid receptor to Ki for rat liver sigma-2 opioid receptor
[8] = Displacement of [3H]di-o-tolylguanidine from sigma-2 opioid receptor in rat brain; format: tissue-based
[9] = Ratio of drug level in nuclear fraction to cytosolic fraction of human SK-N-SH cells at 20 to 50 uM after 2 hrs by beta counting analysis; format: ADME, cell-based
[10] = Ratio of drug level in nuclear fraction to cytosolic fraction of human MCF7/ADR cells at 20 to 50 uM after 2 hrs by beta counting analysis; format: ADME, cell-based; settings: nci/adr-res
[11] = Binding affinity to sigma-1 opioid receptor (unknown origin)
[12] = tested on: TRAMP; assay: Selectivity ratio of Ki for sigma-1 opioid receptor in TRAMP cell membranes to Ki for sigma-2 opioid receptor in TRAMP cell membranes; format: cell-based; settings: Mus musculus
[13] = Binding affinity to guinea pig hippocampus sigma-2 opioid receptor; set-up: species or system Cavia porcellus
[14] = species on record: Cavia porcellus; assay: Selectivity ratio of Ki for guinea pig hippocampus sigma-1 opioid receptor to Ki for guinea pig hippocampus sigma-2 opioid receptor
[15] = Lipophilicity, log P of the compound; format: physicochemical; settings: octanol/water
[16] = Displacement of [3H]ditolylguanidine from sigma-2 opioid receptor in rat liver membranes by liquid scintillation spectrometric analysis; format: cell membranes, Membrane
[17] = Displacement of [3H]progesterone from sigma-1 opioid receptor in porcine liver microsome membranes; format: microsomes, Sus scrofa
[18] = biological target: Sigma non-opioid intracellular receptor 1 (Cavia porcellus, UniProt Q60492); assay: Binding affinity to guinea pig brain membrane sigma-1 opioid receptor by radioligand displacement assay
[19] = Binding affinity to guinea pig brain membrane sigma-2 opioid receptor by radioligand displacement assay; set-up: species or system Cavia porcellus

Sigma non-opioid intracellular receptor 1 (Homo sapiens, UniProt Q99720), sequence (Q99720 whole entry): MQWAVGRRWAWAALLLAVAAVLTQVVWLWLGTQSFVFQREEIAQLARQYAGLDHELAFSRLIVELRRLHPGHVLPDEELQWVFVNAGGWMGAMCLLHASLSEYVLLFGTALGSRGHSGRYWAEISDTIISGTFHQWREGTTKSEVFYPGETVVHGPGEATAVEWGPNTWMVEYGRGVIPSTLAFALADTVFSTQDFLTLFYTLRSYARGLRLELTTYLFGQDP
Sigma non-opioid intracellular receptor 1 (Cavia porcellus, UniProt Q60492), sequence (Q60492 whole entry): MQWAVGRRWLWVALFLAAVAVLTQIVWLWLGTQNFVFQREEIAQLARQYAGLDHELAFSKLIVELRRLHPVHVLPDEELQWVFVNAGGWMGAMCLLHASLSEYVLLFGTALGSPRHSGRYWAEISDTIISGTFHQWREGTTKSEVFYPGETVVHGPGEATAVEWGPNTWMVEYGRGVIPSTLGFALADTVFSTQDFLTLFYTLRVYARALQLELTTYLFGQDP

Row | Structure (SMILES) | Ki [1] [nM] | Ratio Ki [2] | Ki [3] [nM] | other results
1 | CN1CC[C@]2(c3cccc(O)c3)CC(=O)/C(=C/c3ccc(Cl)c(Cl)c3)[C@H]1C2 | 13.4 | 555 | 7440 | 
2 | CS(=O)(=O)n1cc(CCCCN2CCC3(CC2)OCc2ccccc23)c2ccccc21 | 0.05 |  | 1.3 | Ratio IC50 [4]: 26
3 | COc1ccc(C)cc1NC(=O)OC1CC2CCCC(C1)N2Cc1ccc(N(C)C)cc1 (stereo not drawn) | 2.6 | 553 | 1440 | 
4 | COC(=O)[C@@]1(c2ccccc2)C[C@H]1CN1C2CCC1CC(O)(c1ccc(Cl)cc1)C2 (stereo partly drawn) |  |  |  | Ratio Ki [5]: 20.6
5 | COc1cc2c(cc1OC)CN(CCNC(=O)c1cc(C)ccc1OC)CC2 | 13.3 |  |  | 
6 | COc1cccc2c1CCCC2CCCC1CCN(C2CCCCC2)CC1 (stereo not drawn) |  |  |  | Ki [6]: 26.6 nM; Ratio Ki [7]: 29
7 | CC(=O)c1ccc2c(c1)oc(=O)n2CCCCN1CCN(c2ccc(F)cc2)CC1 |  |  |  | Ki [8]: 7 nM
8 | COc1cccc2c1CCCC2CCCN1CCN(C2CCCCC2)CC1 (racemic) |  |  |  | Ratio [9]: 5; Ratio [10]: 5; Ratio Ki [7]: 0.56
9 | CC[C@H]1C[C@H]2C[C@H]3c4[nH]c5ccc(OC)cc5c4CCN(C2)[C@@H]13 [IBOGAINE] | 201 | 43 |  | 
10 | COc1cc2c(cc1OC)CN(CCNC(=O)c1cc(Br)ccc1OC)CC2 | 12.4 |  |  | Ki [11]: 5480 nM
11 | COc1cccc2c(CCCN3CCN(C4CCCCC4)CC3)cccc12 |  |  |  | Ratio Ki [12]: 13
12 | COc1cccc2c1CCC[C@H]2NC(=O)CN1CCN(C2CCCCC2)CC1 |  |  |  | Ki [6]: 10.1 nM; Ratio Ki [7]: 2
13 | COc1cccc2c1CCCC2CCCN1CCC(C2CCCCC2)CC1 (stereo not drawn) |  |  |  | Ki [6]: 18.8 nM; Ratio Ki [7]: 7.6
14 | Fc1ccccc1N1CCN(CCCn2ccc3ccccc32)CC1 | 75 | 20 | 1490 | 
15 | CCn1c(=O)n(C(=O)NC2CC3CCC(C2)N3C)c2ccccc21 (stereo not drawn) |  |  |  | Ki [13]: 32 nM; Ratio Ki [14]: 197
16 | COc1ccc(CN2C3CCC2CC3)cc1OC | 43 |  |  | 

Row | Structure (SMILES) | Ki [1] [nM] | Ratio Ki [2] | Ki [3] [nM] | other results
17 | CC[C@H]1C[C@@H]2C[C@H]3c4[nH]c5ccc(OC)cc5c4CCN(C2)[C@@H]13 [IBOGAINE] |  |  | 8550 | 
18 | COc1cc2c(cc1OC)CN(CCNC(=O)c1cc(Br)cc(OC)c1OC)CC2 | 16.4 | 179 |  | Ki [11]: 2930 nM
19 | COc1cc(Br)cc(C(=O)NCCCCN2CCN(c3cccc(Cl)c3Cl)CC2)c1OC | 75 |  |  | logP [15]: 5.76; Ki [11]: 809 nM
20 | CN1CC[C@@]2(c3cccc(O)c3)CC(=O)/C(=C/c3ccc(Cl)c(Cl)c3)[C@@H]1C2 | 35.3 | 0.77 | 27.3 | 
21 | CN1CC[C@]2(c3cccc(O)c3)CC(=O)/C(=C/c3cccc(O)c3)[C@H]1C2 | 16.5 | 185 | 3060 | 
22 | O=S(=O)(c1ccccc1)n1cc(CCCCN2CCC3(CC2)OCc2ccccc23)c2ccccc21 | 0.17 |  | 10 | Ratio IC50 [4]: 59
23 | CC(=O)[C@H]1CC[C@H]2[C@@H]3CCC4=CC(=O)CC[C@]4(C)[C@H]3CC[C@]12C [PROGESTERONE] |  |  |  | Kd [16]: 441 nM
24 | COc1ccc(C(=O)NCCCCN2CCc3ccc([N+](=O)[O-])cc3C2)c(OC)c1OC | 26.8 | 385 | 10300 | 
25 | CCC(Oc1ccc(Cl)cc1)C(=O)OC1CC2CCC(C1)N2C (racemic) | 67.5 | > 15 | > 1000 | 
26 | COc1cc2c(cc1OC)CN(CCCCNC(=O)c1cc(Br)cc(OC)c1OC)CC2 | 8.2 |  |  | 
27 | CC(C)=CCN1CC[C@]2(C)c3cc(O)ccc3C[C@H]1[C@H]2C [(+)-PENTAZOCINE] |  |  |  | Ki [17]: 1130 nM
28 | CN1CC[C@@]2(c3cccc(O)c3)CC(=O)/C(=C/c3cccc(O)c3)[C@@H]1C2 | 153 | 0.07 | 10.5 | 
29 | Fc1ccc(C2=CC3CCC(C2)N3CCCCc2cn(-c3ccc(F)cc3)c3ccccc23)cc1 (stereo not drawn) | 2.5 |  | 1200 | Ratio IC50 [4]: 480
30 | OC12C3C4CC5C6C4C1C6C(C53)N2Cc1ccc(F)cc1 (stereo not drawn) |  |  |  | Ki [18]: 152 nM; Ki [19]: 20 nM; Ratio Ki [5]: 7.6
31 | COc1cccc2c1CCC[C@@H]2NC(=O)CN1CCN(C2CCCCC2)CC1 |  |  |  | Ki [6]: 6 nM; Ratio Ki [7]: 16
